Where a name gives a salt, the structure may show the parent alone. Read-outs that look alike come from different tables or passages of the source.

The nature of one data set: in vitro. As to conditions: African green monkey, CC50 (Vero-E6).
Another data set has as its system NRC-03-nhCoV. Kind of data set: microbe, parasite or virus in culture. It is filed as cell-based, SARS-CoV-2.
Where [1] appears, read: half maximal cytotoxic concentration, MTT assay, Vero-E6 cells.
The mark [2] stands for this setting: Severe acute respiratory syndrome coronavirus 2, Vero C1008, 72 h, Vero-E6 cells, 72 h, crystal violet, reduction of virus-induced CPE by 50%, read-out: IC50 (NRC-03-nhCoV).
The mark [3] stands for this setting: read-out: CC50 (Vero-E6), half maximal cytotoxic concentration, MTT assay, Vero-E6 cells.
Setting [4] is: Vero-E6 cells, 72 h, crystal violet, reduction of virus-induced CPE by 50%, read-out: IC50 (NRC-03-nhCoV).
The mark [5] stands for this setting: Severe acute respiratory syndrome coronavirus 2, Vero C1008, Vero-E6 cells, 72 h, crystal violet, reduction of virus-induced CPE by 50%, read-out: IC50 (NRC-03-nhCoV).
Where [6] appears, read: Severe acute respiratory syndrome coronavirus 2, Vero C1008, negative log of the IC50 value against SARS-CoV-2, read-out: pIC50 (converted).

`CC(=O)Oc1ccccc1C(=O)O` [Acetyl Salicylic acid “Aspirin”, Acetyl Salicylic acid] had a CC50 in the data set “in vitro” (setting [1]) of 1260 µM. Besides, the IC50 in the data set on NRC-03-nhCoV (setting [2]) worked out at 12.2 µM.
As for `NCC[C@H](O)C(=O)N[C@@H]1C[C@H](N)[C@@H](O[C@H]2O[C@H](CN)[C@@H](O)[C@H](O)[C@H]2O)[C@H](O)[C@H]1O[C@H]1O[C@H](CO)[C@@H](O)[C@H](N)[C@H]1O` [Amikacin sulphate], the CC50 in the data set with Vero-E6 cells (setting [3]) came to 2460 µM. Also, the IC50 with NRC-03-nhCoV (setting [4]) was 16.8 µM.
In turn, `CC1(C)S[C@@H]2[C@H](NC(=O)[C@H](N)c3ccc(O)cc3)C(=O)N2[C@H]1C(=O)O` [Amoxicillin] showed a CC50 in the data set “in vitro” (setting [1]) of 615 µM. In addition, the IC50 with NRC-03-nhCoV (setting [2]) was found to be 16.1 µM.
For `CC1(C)S[C@@H]2[C@H](NC(=O)Cc3ccccc3)C(=O)N2[C@H]1C(=O)O` [Benzathine penicillin], the CC50 in the data set on Vero-E6 cells (setting [3]) was found to be 728 µM. The IC50 in the data set with NRC-03-nhCoV (setting [4]) amounted to 15.8 µM.
As to `CCN1CCN(C(=O)N[C@@H](C(=O)N[C@@H]2C(=O)N3C(C(=O)O)=C(CSc4nnnn4C)CS[C@H]23)c2ccc(O)cc2)C(=O)C1=O` [Cefoperazone], the CC50 in “in vitro” (setting [1]) came out at 69 µM. In the data set on NRC-03-nhCoV (setting [2]), the IC50 stood at 12.4 µM.
For `CO/N=C(\C(=O)N[C@@H]1C(=O)N2C(C(=O)O)=C(COC(C)=O)CS[C@H]12)c1csc(N)n1` [Cefotaxime], the CC50 in “in vitro” (setting [1]) came out at 3160 µM. Also, in the data set with NRC-03-nhCoV (setting [2]), the IC50 worked out at 42.7 µM.
The corresponding values for `CC(C)(O/N=C(\C(=O)N[C@@H]1C(=O)N2C(C(=O)[O-])=C(C[n+]3ccccc3)CS[C@H]12)c1csc(N)n1)C(=O)O` [Ceftazidime] are 5550 µM and 46.1 µM.
`CO/N=C(\C(=O)N[C@@H]1C(=O)N2C(C(=O)O)=C(CSc3nc(=O)c(=O)[nH]n3C)CS[C@H]12)c1csc(N)n1` [Ceftriaxone] came in with a CC50 in “in vitro” (setting [1]) of 446 µM. In the data set on NRC-03-nhCoV (setting [5]), the IC50 was 16.1 µM.
On to `Cc1ccc(-c2cc(C(F)(F)F)nn2-c2ccc(S(N)(=O)=O)cc2)cc1` [Celecoxib], for which, in the data set “in vitro” (setting [1]), the CC50 is 140 µM. The IC50 was 13 µM in the data set on NRC-03-nhCoV (setting [2]) and 12.9 µM with NRC-03-nhCoV (setting [6]).
Take `CC1=C(C(=O)O)N2C(=O)[C@@H](NC(=O)[C@H](N)c3ccccc3)[C@H]2SC1` [Cephalexin]: in the data set on NRC-03-nhCoV (setting [2]), the IC50 stood at 13.2 µM.
Regarding `O=C(N[C@H](CO)[C@H](O)c1ccc([N+](=O)[O-])cc1)C(Cl)Cl` [Chloramphenicol], the CC50 in the data set with Vero-E6 cells (setting [3]) and in the data set “in vitro” (setting [1]) was 33.9 µM throughout. For the same compound, the IC50 with NRC-03-nhCoV (setting [2]) was found to be 16.9 µM.
Compound `CN(C)CCC(c1ccc(Cl)cc1)c1ccccn1` (stereo not drawn) [Chlorpheniramine maleate] yielded a CC50 in “in vitro” (setting [1]) of 466 µM. In addition, the IC50 with NRC-03-nhCoV (setting [2]) was 3.6 µM.
As to `CC(C)C(=O)OCC(=O)[C@@]12O[C@H](C3CCCCC3)O[C@@H]1C[C@H]1[C@@H]3CCC4=CC(=O)C=C[C@]4(C)[C@H]3[C@@H](O)C[C@@]12C` [Ciclesonide], in “in vitro” (setting [1]), the CC50 stood at 120 µM. Moreover, the IC50 in the data set with NRC-03-nhCoV (setting [2]) is 4.2 µM.
Regarding `O=C(O)c1cn(C2CC2)c2cc(N3CCNCC3)c(F)cc2c1=O` [Ciprofloxacin], the IC50 in the data set on NRC-03-nhCoV (setting [2]) amounted to 61.6 µM.
`CCC[C@@H]1C[C@@H](C(=O)N[C@@H]([C@H]2O[C@H](SC)[C@H](O)[C@@H](O)[C@H]2O)[C@H](C)Cl)N(C)C1` [Clindamycin]: the IC50 with NRC-03-nhCoV (setting [2]) and in the data set with NRC-03-nhCoV (setting [4]) was 15.7 µM throughout.
`C[C@@H]1C[C@H]2[C@@H]3CCC4=CC(=O)C=C[C@]4(C)[C@@]3(F)[C@@H](O)C[C@]2(C)[C@@]1(O)C(=O)CO` [Dexamethasone] had a CC50 in “in vitro” (setting [1]) of 1900 µM. Besides, the IC50 with NRC-03-nhCoV (setting [2]) amounted to 123 µM.
Taken in the same sequence, the figures for `O=C(O)Cc1ccccc1Nc1c(Cl)cccc1Cl` [Diclofenac sodium] were 138 µM and 96.2 µM.
In turn, `C[C@H]1c2cccc(O)c2C(=O)C2=C(O)[C@]3(O)C(=O)C(C(N)=O)=C(O)[C@@H](N(C)C)[C@@H]3[C@@H](O)[C@@H]21` [Doxycycline] had a CC50 in “in vitro” (setting [1]) of 636 µM. In addition, the IC50 with NRC-03-nhCoV (setting [2]) was 5.1 µM; in the data set on NRC-03-nhCoV (setting [6]), 5.13 µM.
In the case of `Cc1onc(-c2c(F)cccc2Cl)c1C(=O)N[C@@H]1C(=O)N2[C@@H]1SC(C)(C)[C@@H]2C(=O)O` [Flucloxacillin], the CC50 in “in vitro” (setting [1]) was determined as 966 µM. The IC50 with NRC-03-nhCoV (setting [2]) worked out at 158 µM.
In turn, `CCC(=O)O[C@]1(C(=O)SCF)[C@H](C)C[C@H]2[C@@H]3C[C@H](F)C4=CC(=O)C=C[C@]4(C)[C@@]3(F)[C@@H](O)C[C@@]21C` [Fluticasone Propionate] came in with a CC50 in “in vitro” (setting [1]) of 32 µM. The IC50 in the data set on NRC-03-nhCoV (setting [2]) was found to be 1.71 µM.
For the compound `COc1ccc(C[C@@H](C)NC[C@H](O)c2ccc(O)c(NC=O)c2)cc1` [Formoterol Fumarate], the CC50 with Vero-E6 cells worked out at 569 µM. Also, the IC50 with NRC-03-nhCoV (setting [4]) was found to be 71.8 µM.
In “in vitro” (setting [1]), `C[C@]12CCC(=O)C=C1CC[C@@H]1[C@@H]2[C@@H](O)C[C@@]2(C)[C@H]1CC[C@]2(O)C(=O)CO` [Hydrocortisone] had a CC50 of 614 µM. Besides, the IC50 in the data set with NRC-03-nhCoV (setting [2]) came out at 7.1 µM.
Take `CC(C)Cc1ccc(C(C)C(=O)O)cc1` (stereo not drawn) [Ibuprofen]: in “in vitro” (setting [1]), the CC50 was found to be 1170 µM. Besides, in the data set on NRC-03-nhCoV (setting [2]), the IC50 stood at 88.7 µM.
For the compound `COc1ccc2c(c1)c(CC(=O)O)c(C)n2C(=O)c1ccc(Cl)cc1` [Indomethacin], in “in vitro” (setting [1]), the CC50 was 672 µM. For the same compound, the IC50 in the data set on NRC-03-nhCoV (setting [2]) amounted to 8.51 µM.
Taken in the same sequence, the figures for `O=C(c1ccccc1)c1ccc2n1CCC2C(=O)O` (stereo not drawn) [Ketorolac Tromethamine] were 2040 µM and 153 µM.
For the compound `C[C@H]1COc2c(N3CCN(C)CC3)c(F)cc3c(=O)c(C(=O)O)cn1c23` [Levofloxacin], the CC50 in “in vitro” (setting [1]) stood at 2160 µM. In addition, in the data set on NRC-03-nhCoV (setting [2]), the IC50 is 13.8 µM.
The compound `CC(=O)NC[C@H]1CN(c2ccc(N3CCOCC3)c(F)c2)C(=O)O1` [Linezolid] displayed a CC50 in the data set “in vitro” (setting [1]) of 816 µM. Moreover, the IC50 in the data set with NRC-03-nhCoV (setting [2]) is 16.3 µM.
In “in vitro” (setting [1]), `Cc1cnc(NC(=O)C2=C(O)c3ccccc3S(=O)(=O)N2C)s1` [Meloxicam] displayed a CC50 of 262 µM. The IC50 with NRC-03-nhCoV (setting [2]) is 12.4 µM.
As for `Cc1c(N(C)CS(=O)(=O)O)c(=O)n(-c2ccccc2)n1C` [Metamizole sodium], the CC50 with Vero-E6 cells (setting [3]) was determined as 948 µM. The IC50 with NRC-03-nhCoV (setting [4]) is 15 µM.
In the data set “in vitro” (setting [1]), `C[C@H]1C[C@@H]2[C@H]([C@@H](O)C[C@@]3(C)[C@H]2CC[C@]3(O)C(=O)CO)[C@@]2(C)C=CC(=O)C=C12` [Methylprednisolone] yielded a CC50 of 3340 µM. Moreover, the IC50 in the data set on NRC-03-nhCoV (setting [2]) came to 90.4 µM.
As to `CC(C)(O)c1ccccc1CC[C@@H](SCC1(CC(=O)O)CC1)c1cccc(/C=C/c2ccc3ccc(Cl)cc3n2)c1` [Montelukast], the CC50 in the data set “in vitro” was 9.86 µM.
In the data set “in vitro” (setting [1]), `COc1c(N2C[C@@H]3CCCN[C@@H]3C2)c(F)cc2c(=O)c(C(=O)O)cn(C3CC3)c12` [Moxifloxacin] displayed a CC50 of 2240 µM. Also, in the data set with NRC-03-nhCoV (setting [2]), the IC50 came to 12.2 µM.
Taken in the same sequence, the figures for `c1ccc2c(CC3=NCCN3)cccc2c1` [Naphazoline] were 636 µM and 9.52 µM.
Turning to `O=C1CN(/N=C/c2ccc([N+](=O)[O-])o2)C(=O)N1` [Nitrofurantoin], in “in vitro”, the CC50 is 599 µM. Besides, the IC50 with NRC-03-nhCoV (Severe acute respiratory syndrome coronavirus 2, Vero C1008, 72 h, read-out: IC50 (NRC-03-nhCoV)) is 16.2 µM.
In the case of `C[C@@H]1[C@H](O)[C@@H](C)/C=C/C=C/CC/C=C/C=C/C=C/C=C/C(O[C@H]2O[C@H](C)[C@@H](O)[C@H](N)[C@@H]2O)CC2O[C@](O)(CC(O)C(O)CCC(O)CC(O)CC(O)CC(=O)O[C@H]1C)CC(O)C2C(=O)O` (stereo partly drawn) [Nystatin], the CC50 in the data set with Vero-E6 cells (setting [3]) was determined as 183 µM. The IC50 in the data set with NRC-03-nhCoV (setting [4]) was 161 µM.
With `CC(=O)Nc1ccc(O)cc1` [Paracetamol], in the data set “in vitro” (setting [1]), the CC50 was determined as 4980 µM.
For `CN1C(C(=O)Nc2ccccn2)=C(O)c2ccccc2S1(=O)=O` [Piroxicam], the CC50 in “in vitro” (setting [1]) turned out to be 1800 µM. Moreover, the IC50 in the data set with NRC-03-nhCoV (setting [2]) is 8.21 µM; in the data set on NRC-03-nhCoV (setting [6]) it was 8.13 µM.
`OCc1cc(C(O)CNCCCCCCOCCCCc2ccccc2)ccc1O` (stereo not drawn) [Salmeterol]: the CC50 in the data set “in vitro” (setting [1]) stood at 4.1 µM. In addition, the IC50 with NRC-03-nhCoV (setting [5]) worked out at 1.5 µM.
Regarding Neomycin, the CC50 in the data set with Vero-E6 cells (setting [3]) stood at 833 µM. Besides, the IC50 in the data set with NRC-03-nhCoV (setting [4]) is 18.1 µM.

The record behind these values is PMC7761982, “FDA-Approved Drugs with Potent In Vitro Antiviral Activity against Severe Acute Respiratory Syndrome Coronavirus 2” (Pharmaceuticals, 2020).
